Molecules are shown by their SMILES.

This is an account of results in ChEMBL document CHEMBL1152077, “Novel, water-soluble phosphate derivatives of 2-ethoxy carbonylpaclitaxel as potential prodrugs of paclitaxel: Synthesis and antitumor evaluation” (1995).

What all share (type): functional
Assay [1] deals with Mus musculus. As to the kind of experiment: Tested in vivo antitumor activity at a dose of subcutaneous 24 mg/kg/injection relative to paclitaxel in Madison 109 murine lung carcinoma (M109).
Assay [2] concerns Mus musculus. Briefly: Tested in vivo antitumor activity at a dose of subcutaneous 40 mg/kg/injection in Madison 109 murine lung carcinoma (M109).
For assay [3], the system named is Mus musculus. Briefly: Tested in vivo antitumor activity at a dose of subcutaneous 48 mg/kg/injection relative to paclitaxel in Madison 109 murine lung carcinoma (M109).
In assay [4] the test system is Mus musculus. Briefly: Tested in vivo antitumor activity at a dose of subcutaneous 33 mg/kg/injection in Madison 109 murine lung carcinoma (M109).
For assay [5], the system named is Mus musculus. Briefly: Tested in vivo antitumor activity at a dose of subcutaneous 18 mg/kg/injection relative to paclitaxel in Madison 109 murine lung carcinoma (M109).

With `CCOC(=O)O[C@@H](C(=O)O[C@H]1C[C@@]2(O)[C@@H](OC(=O)c3ccccc3)[C@@H]3[C@]4(OC(C)=O)CO[C@@H]4C[C@H](OC(=O)c4ccccc4COP(=O)([O-])O)[C@@]3(C)C(=O)[C@H](OC(C)=O)C(=C1C)C2(C)C)[C@@H](NC(=O)c1ccccc1)c1ccccc1.[K+]`, the T-C is 10.8 days (optimal dose)-1 in the assay on Mus musculus [1] and 17 days (optimal dose)-1 in the assay with Mus musculus [2].
For `CCOC(=O)O[C@@H](C(=O)O[C@H]1C[C@@]2(O)[C@@H](OC(=O)c3ccccc3)[C@@H]3[C@]4(OC(C)=O)CO[C@@H]4C[C@H](OC(=O)Cc4ccccc4OP(=O)([O-])O)[C@@]3(C)C(=O)[C@H](OC(C)=O)C(=C1C)C2(C)C)[C@@H](NC(=O)c1ccccc1)c1ccccc1.[Na+]`, the T-C with Mus musculus [3] is given as 15.8 days (optimal dose)-1; with Mus musculus [4], 1.5 days (optimal dose)-1.
For `CCOC(=O)O[C@@H](C(=O)O[C@H]1C[C@@]2(O)[C@@H](OC(=O)c3ccccc3)[C@@H]3[C@]4(OC(C)=O)CO[C@@H]4C[C@H](OC(=O)CC(C)(C)c4c(C)cc(C)cc4OP(=O)([O-])O)[C@@]3(C)C(=O)[C@H](OC(C)=O)C(=C1C)C2(C)C)[C@@H](NC(=O)c1ccccc1)c1ccccc1.[Na+]`, the figures for the T-C in the assay with Mus musculus [5] and in the assay with Mus musculus [2] were 12.3 days (optimal dose)-1 and 18 days (optimal dose)-1, respectively.
